{"source": "paper PMC11667226", "about": "(Theranostics, 2025)", "origin": "cited, not measured here", "system": "EGFR", "details": "microscopic histopathology as reference; ref Van Keulen et al. [36]; cited from earlier work", "from_the_text": "Van Keulen et al. reported a 95% sensitiv ..."}
{"substance": "panitumumab-IRDye800: antibody-based optical imaging agent targeting EGFR", "values": [{"measurement": "Sensitivity for detection of inadequate margins (< 5mm)", "result": 95, "unit": "%"}, {"measurement": "Specificity for detection of inadequate margins (< 5mm)", "result": 89, "unit": "%"}]}
